# Patent US20250215029A1 (Recludix Pharma, Inc., priority 2022, published 2025)
# pIC50: −log10 of the molar value. Like-named read-outs stand apart in the source and are kept apart here.
# Legend:
# [1] = molecular target: T1, pY705-STAT3 in PBMC (Homo sapiens, UniProt P40763); assay: MSD-pSTAT-PBMC Assay (pSTAT3, IL-6 stimulated); assay type: cell-based; conditions: compound 3 hrs, then 10 ng/mL IL-6 for 10 min
# T1 construct: Cryopreserved Peripheral Blood Mononuclear Cells (PBMC) are from AllCells; host or cells: cryopreserved PBMC
# T1 sequence (P40763 whole entry): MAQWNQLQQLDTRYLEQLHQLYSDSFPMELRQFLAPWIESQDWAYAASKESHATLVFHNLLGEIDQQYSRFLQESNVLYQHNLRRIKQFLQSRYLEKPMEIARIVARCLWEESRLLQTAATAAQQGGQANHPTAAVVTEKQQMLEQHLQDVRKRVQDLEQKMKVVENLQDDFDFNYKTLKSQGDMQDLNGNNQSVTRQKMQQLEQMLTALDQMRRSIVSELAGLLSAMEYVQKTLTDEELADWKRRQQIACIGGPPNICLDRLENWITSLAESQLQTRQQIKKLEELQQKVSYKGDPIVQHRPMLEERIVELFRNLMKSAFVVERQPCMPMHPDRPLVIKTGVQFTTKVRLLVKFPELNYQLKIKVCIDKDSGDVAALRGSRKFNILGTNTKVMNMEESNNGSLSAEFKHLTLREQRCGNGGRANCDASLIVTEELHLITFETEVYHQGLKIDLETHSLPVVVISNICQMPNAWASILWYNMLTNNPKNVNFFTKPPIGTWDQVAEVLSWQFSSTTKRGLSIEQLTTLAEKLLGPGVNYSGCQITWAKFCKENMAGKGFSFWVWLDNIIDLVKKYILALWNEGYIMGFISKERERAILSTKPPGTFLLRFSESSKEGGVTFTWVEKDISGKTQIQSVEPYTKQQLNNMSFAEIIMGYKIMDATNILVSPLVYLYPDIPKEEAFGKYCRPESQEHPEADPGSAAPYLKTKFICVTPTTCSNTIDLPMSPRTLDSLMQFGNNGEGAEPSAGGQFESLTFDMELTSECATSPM
# Outline: (§1)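 Inhibition of cytokine-induced STAT phosphorylation was measured in recovered human PBMC after 3 hrs compound exposure and a 10 min IL-4 (1 ng/mL) or IL-6 (10 ng/mL) challenge. MSD detection of pY641-STAT6 or pY705-STAT3 yielded IC50 values.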
# [2] = molecular target: T2, pY641-STAT6 in PBMC (Homo sapiens, UniProt P42226); assay: MSD-pSTAT-PBMC Assay (pSTAT6, IL-4 stimulated); assay type: cell-based; conditions: compound 3 hrs, then 1 ng/mL IL-4 for 10 min
# T2 construct: Cryopreserved Peripheral Blood Mononuclear Cells (PBMC) are from AllCells; host or cells: cryopreserved PBMC
# T2 sequence (P42226 1-847): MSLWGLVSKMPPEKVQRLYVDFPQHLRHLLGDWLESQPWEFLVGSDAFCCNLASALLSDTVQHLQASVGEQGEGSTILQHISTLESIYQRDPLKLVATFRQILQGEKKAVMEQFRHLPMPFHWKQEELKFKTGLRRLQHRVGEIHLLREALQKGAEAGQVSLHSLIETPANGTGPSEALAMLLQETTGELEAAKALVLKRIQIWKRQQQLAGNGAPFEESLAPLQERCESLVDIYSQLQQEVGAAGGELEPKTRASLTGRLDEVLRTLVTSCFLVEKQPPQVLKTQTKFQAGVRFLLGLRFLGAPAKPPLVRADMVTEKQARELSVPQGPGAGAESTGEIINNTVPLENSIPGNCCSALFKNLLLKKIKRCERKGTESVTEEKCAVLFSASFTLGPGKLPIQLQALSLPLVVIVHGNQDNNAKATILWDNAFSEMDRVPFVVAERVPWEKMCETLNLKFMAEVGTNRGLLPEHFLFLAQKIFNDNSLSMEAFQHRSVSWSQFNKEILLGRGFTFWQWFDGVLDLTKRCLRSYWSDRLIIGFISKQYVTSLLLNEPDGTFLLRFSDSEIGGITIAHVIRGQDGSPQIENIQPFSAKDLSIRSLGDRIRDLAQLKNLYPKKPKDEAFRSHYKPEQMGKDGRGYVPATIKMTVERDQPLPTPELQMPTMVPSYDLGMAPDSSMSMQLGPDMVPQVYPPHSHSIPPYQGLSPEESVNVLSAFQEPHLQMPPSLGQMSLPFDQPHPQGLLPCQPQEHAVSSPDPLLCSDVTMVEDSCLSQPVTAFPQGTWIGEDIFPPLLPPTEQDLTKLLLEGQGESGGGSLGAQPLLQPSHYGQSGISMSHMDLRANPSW
# Outline: as §1
# [3] = PBMC, Table 1114, read-out: pSTAT3
# [4] = PBMC, Table 1114, read-out: pSTAT6
# [5] = PBMC, Table 115, read-out: STAT3
# [6] = PBMC, Table 115, read-out: STAT6
"pIC50 [1, 3]","pIC50 [2, 4]",SMILES,"pIC50 ([2]; STAT6, PBMC, Table 115)","pIC50 [1, 5]",other results
6.00 to 7.00,> 7.00,"CC(C)(C)C(=O)OCOP(=O)(OCOC(=O)C(C)(C)C)C(F)(F)c1ccc2sc(C(=O)NC3CCCCC4CCCC(C(=O)N5CC(C#N)C(c6ccccc6)C5)N4C3=O)cc2c1 [Compound 169, ((((2-(((4S,7S,11aS)-4-((rel- trans)-3-cyano-4-phenylpyrrolidine-1-carbonyl)-6-oxodecahydro-2H-pyrido[1,2-a]azocin-7-yl)carbamoyl)benzo[b]thiophen-5-yl)difluoromethyl)phosphroyl)bis(oxy)) bis(methylene) bis(2,2-dimethylpropaneoate)]",–,–,–
< 5.52,< 5.52,"CC(C)(C(=O)SCCOP(=O)(OCCSC(=O)C(C)(C)C(F)(F)F)C(F)(F)c1ccc2sc(C(=O)N[C@H]3CCCC[C@H]4CC[C@@H](C(=O)N5C[C@@H](C#N)[C@H](c6ccccc6)C5)N4C3=O)cc2c1)C(F)(F)F (single isomer, unassigned) [Compound 159, S,S′-(((((2-(((3S,6S,10aS)-3-((3S,4R or 3R,4S)-3-cyano-4-phenylpyrrolidine-1-carbonyl)-5-oxodecahydro-pyrrolo[1,2-a]azocin-6-yl)carbamoyl)benzo[b]thiophen-5-yl)difluoromethyl)phosphoryl)bis(oxy))bis(ethane-2,1-diyl)) bis(3,3,3-trifluoro-2,2-dimethylpropane-thioate)]",–,–,–
6.00 to 7.00,> 7.00,"CC(C)CC(=O)SCCOP(=O)(OCOC(=O)OC(C)C)C(F)(F)c1ccc2sc(C(=O)N[C@H]3CCCC[C@H]4CC[C@@H](C(=O)N5C[C@H](c6ccccc6)[C@@H](C#N)C5)N4C3=O)cc2c1 (single isomer, unassigned) [Compound 166, S-(2-((((2-(((3S,6S,10aS)-3-((3R,4S or 3S,4R)-3-cyano-4-phenylpyrrolidine-1-carbonyl)-5-oxodecahydropyrrolo [1,2-a]azocin-6-yl)carbamoyl)benzo[b]thiophen-5-yl)difluoromethyl) (((isopropoxycarbonyl)oxy)methoxy)phosphoryl)oxy)ethyl)-3-methylbutane thioate]",–,–,–
5.52 to 6.00,6.00 to 7.00,"CC(C)(C)C(=O)OCOP(=O)(Cc1ccc2sc(C(=O)N[C@H]3CCCC[C@H]4CC[C@@H](C(=O)N5C[C@@H](C#N)[C@H](c6ccccc6)C5)N4C3=O)cc2c1)OCOC(=O)C(C)(C)C (single isomer, unassigned) [Compound 144, ((((2-(((3S,6S,10aS)-3-((3S,4R or 3R,4S)-3-cyano-4-phenylpyrrolidine-1-carbonyl)-5-oxodecahydro-pyrrolo[1,2-a]azocin-6-yl)carbamoyl)benzo[b]thiophen-5-yl)methyl)phosphoryl)bis (oxy))bis (methylene) bis(2,2-dimethylpropanaote)]",–,–,–
> 7.00,< 5.52,"CC(C)OC(=O)OCOP(=O)(Cc1ccc2sc(C(=O)N[C@H]3CCCC4CC[C@@H](C(=O)N5CC(c6cccnc6)C5)N4C3=O)cc2c1)OCOC(=O)OC(C)C (stereo partly drawn) [Compound 158, diisopropyl (((((2-(((3S,6S,9aS)-5-oxo-3-(3-(pyridin-3-yl)azetidine-1-carbonyl)octahydro-1H-pyrrolo[1,2-a]azepin-6-yl)carbamoyl)benzo [b]thiophen-5-yl)methyl)phosphoryl)bis (oxy))bis(methyl-ene))bis(carbonate)]",–,–,–
6.00 to 7.00,> 7.00,"CC(C)C(=O)SCCOP(=O)(OCCSC(=O)C(C)C)C(F)(F)c1ccc2sc(C(=O)N[C@H]3CCCCC4CC[C@@H](C(=O)N5C[C@H](c6ccccc6)[C@@H](C#N)C5)N4C3=O)cc2c1 (single isomer, unassigned) [Compound 156, S,S′-(((((2-(((3S,6S,10aS)-3-((3S,4R or 3R,4S)-3-cyano-4-phenylpyrrolidine-1-carbonyl)-5-oxodecahydro-pyrrolo[1,2-a]azocin-6-yl)carbamoyl)benzo[b]thiophen-5-yl)difluoromethyl)phosphoryl)bis(oxy))bis(ethane-2,1-diyl)) bis(2-methylpropane-thioate)]",–,–,–

# Further lines, the molecule ahead of its results:
SMILES,"pIC50 [1, 3]","pIC50 [2, 4]","pIC50 ([2]; STAT6, PBMC, Table 115)","pIC50 [1, 5]",other results
"CCCOC(=O)[C@H](C)NP(=O)(Oc1ccccc1)[C@@H](F)c1ccc2sc(C(=O)N[C@H]3CCC[C@H]4CC[C@@H](C(=O)N5C[C@@H](c6ccccc6)[C@H](C#N)C56CC6)N4C3=O)cc2c1 (stereo partly drawn) [Compound 382, propyl (((R)-(2-(((3S,6S,9aS)-3-((6R,7S)-7-cyano-6-phenyl-4-azaspiro[2.4]heptane-4-carbonyl)-5-oxooctahydro-1H-pyrrolo[1,2-a]azepin-6-yl)carbamoyl)benzo [b]thiophen-5-yl)fluoromethyl) (phenoxy)phosphoryl)-L-alaninate]",–,–,> 7.00,–,"pIC50 ([1]; STAT3, PBMC, Table 115): < 5.52"
"CC(C)CC(=O)SCCOP(=O)(OCCSC(=O)CC(C)C)[C@@H](F)c1ccc2sc(C(=O)N[C@H]3CCCC[C@H]4CC[C@@H](C(=O)N5C[C@@H](C#N)[C@H](c6cc[nH]c(=O)c6)C5)N4C3=O)cc2c1 (single isomer, unassigned) [Compound 1090]",–,–,–,5.52 to 6.00,"pIC50 [2, 6]: 6.00 to 7.00"
"CC(C)CC(=O)SCCOP(=O)(OCCSC(=O)CC(C)C)[C@@H](F)c1ccc2sc(C(=O)N[C@H]3CCC[C@H]4CC[C@@H](C(=O)N5CC(c6cccnc6)C5)N4C3=O)cc2c1 [Compound 1089, S,S′-(((((R)-fluoro(2-(((3S,6S,9aS)-5-oxo-3-(3-(pyridin-3-yl)azetidine-1-carbonyl)octahydro-1H-pyrrolo[1,2-a]azepin-6-yl)carbamoyl)benzo [b]thiophen-5-yl)methyl)phosphoryl)bis(oxy))bis(ethane-2,1-diyl)) bis(3-methylbutanethioate]",–,–,–,> 7.00,"pIC50 [2, 6]: 6.00 to 7.00"
"CC(C)CC(=O)SCCOP(=O)(OCCSC(=O)CC(C)C)C(F)(F)c1ccc2ccc(C(=O)N[C@H]3CCCC[C@H]4CC[C@@H](C(=O)N5CC(c6cc[nH]c(=O)c6)CC56CC6)N4C3=O)cc2c1 (stereo partly drawn) [Compound 1092, S,S′-((((difluoro(7-(((3S,6S,10aS)-5-oxo-3-(6-(2-oxo-1,2-dihydropyridin-4-yl)-4-azaspiro[2.4]heptane-4-carbonyl)decahydropyrrolo[1,2-a]azocin-6-yl)carbamoyl)naphthalen-2-yl)methyl)phosphoryl)bis(oxy))bis(ethane-2,1-diyl)) bis(3-methylbutanethioate)]",–,–,–,6.00 to 7.00,"pIC50 [2, 6]: > 7.00"
"CCCOC(=O)[C@H](C)NP(=O)(Oc1ccccc1)C(F)c1ccc2sc(C(=O)N[C@H]3CCCC[C@H]4CC[C@@H](C(=O)N5C[C@@H](c6cccnc6)CC56CC6)N4C3=O)cc2c1 (stereo in doubt) [Compound 457, propyl (((R)-fluoro(2-(((3S,6S,10aS)-5-oxo-3-((R)-6-(pyridin-3-yl)-4-azaspiro[2.4]heptane-4-carbonyl)decahydropyrrolo[1,2-a]azocin-6-yl)carbamoyl)benzo [b]thiophen-5-yl)methyl)(phenoxy)phosphoryl)-L-alaninate]",–,–,> 7.00,< 5.52,–
"CCCCOC(=O)[C@H](C)NP(=O)(Cc1ccc2ccc(C(=O)N[C@H]3CCCC[C@H]4CC[C@@H](C(=O)N5CC(c6ccccc6)CC56CC6)N4C3=O)cc2c1)Oc1ccccc1 (stereo partly drawn) [Compound 405, butyl (((7-(((3S,6S,10aS)-5-oxo-3-(6-phenyl-4-azaspiro[2.4]heptane-4-carbonyl)decahydropyrrolo[1,2-a]azocin-6-yl)carbamoyl)naphthalen-2-yl)methyl)(phenoxy)phosphoryl)-L-alaninate]",–,–,5.52 to 6.00,< 5.52,–
"CCC(CC)COC(=O)[C@H](C)NP(=O)(Cc1ccc2ccc(C(=O)N[C@H]3CCCC[C@H]4CC[C@@H](C(=O)N5CC(c6ccccc6)CC56CC6)N4C3=O)cc2c1)Oc1ccccc1 (stereo partly drawn) [Compound 404, 2-ethylbutyl (((7-(((3S,6S,10aS)-5-oxo-3-(6-phenyl-4-azaspiro[2.4]heptane-4-carbonyl)decahydropyrrolo[1,2-a]azocin-6-yl)carbamoyl)naphthalen-2-yl)methyl)(phenoxy)phosphoryl)-L-alaninate]",–,–,5.52 to 6.00,< 5.52,–
